Assay results published in US5668265A, “Bi-directional oligonucleotides that bind thrombin” (Becton Dickinson and Company, priority 1996, dated 1997).

What was measured:
human α thrombin = experiment: Competitive binding assay on BIAcore (SPR) against immobilized consensus aptamer; conditions: for Kd: 80 nM human α thrombin, 25° C., pH 7.4, competition with immobilized consensus aptamer, read-out: Apparent Kd
Description: Competitive binding assays were used to determine the thrombin binding affinity of the various bi-directional oligonucleotides relative to the affinity of the known thrombin aptamer ^5' GGTTGGTGTGGTTGG^3' (SEQ ID NO:4) (hereafter called the "consensus" aptamer; Bock, L. C. et al, Nature 355, 564 (1992)). The assays were performed on a BIAcore™ biosensor instrument (Pharmacia Biosensor, Uppsala Sweden) by means of Surface Plasmon Resonance (SPR) detection of thrombin bound to consensus aptamer immobilized as described in U.S. patent application Ser. No. 0802,383, now abandoned, filed Aug. 5, 1993 incorporated herein by reference. Competition experiments were conducted at 25° C. by pre-incubating 80 nM human α thrombin for 30 minutes with various concentrations of the bi-directional oligonucleotide to be measured, in a buffer composed of 20 mM Tris-Acetate, 140 mM NaCl, 5 mM KCl, 1 mM CaCl2, 1 mM MgCl2 (pH 7.4). This solution was then passed over the surface containing immobilized consensus aptamer at a flow rate of 3 μL per minute for 10 minutes. The steady state response was measured as a function of bi-directional oligonucleotide concentration. The competition data were analyzed assuming that thrombin and the solution phase oligonucleotide bind monovalently and that thrombin molecules bound to a solution phase oligonucleotide are prohibited from binding to the immobilized consensus aptamer.
In this analysis, the steady state response in the presence of oligonucleotide is proportional to the surface concentration of bound thrombin, and apparent equilibrium dissociation constants (Kd 's) were determined from the variation in SPR response as a function of bi-directional oligonucleotide concentration. (Data were fit to eqn 31 of Pisarchick, M. L. and Thompson, N. L., Biophys J. 58, 1235, to yield the Kd values. In this analysis, it was assumed that the concentration nucleic acid ligand free in solution is equal to the total nucleic acid ligand concentration). The values determined are shown below (SEQ ID NO:4): […]

[1] = system: 3'-exonuclease (Phosphodiestase I; C. adamanteus Venon); assay type: in vitro ADME; conditions: 0.005 units exonuclease, 37° C., pH 8.8; for Approximate Half-Life: estimated by visual inspection of autoradiogram
Description: It is expected that the 3'--3' linked oligonucleotides will show similar resistance to 3'-exonucleases found in
The various bi-directional nucleic acid ligands to be tested were first labeled with radioactive (^32 p) phosphate as follows:
200 pmol of each oligonucleotide was incubated at 37° C. for 30 minutes in 20 μl of a solution containing 3.0 mM Tricine (pH 7.6), 50 mM TRIS-HCl (pH8), 10 mM MgCl2, 5 mM DTT, 1.0 μM γ-^32 P-ATP (3000 Ci/mmol, 10 mCi/mL), 10 units T4 polynucleotide kinase (New England Biolabs). This labeling reaction was then terminated by heating the mixture at 95° C. for 3 minutes.
To test the resistance of the ^32 P-labeled oligonucleotides to the 3' exonuclease, the following reaction mixtures were assembled: Each bi-directional nucleic acid ligand (25 pmole) was dissolved in 100 μl containing 55 mM Tris-HCl, 55 mM NaCl, 7.5 mM MgCl2 (all at pH8.8). To this mixture 0.005 units of the exonuclease (Phosphodiestase I; C. adamanteus Venon; Pharmacia Biotech, Inc.) was added and the sample was mixed and incubated at 37° C. Five μL aliquots of each reaction were removed at 3, 10, 30, 60, and 100 minutes. The reactions were quenched by placing the aliquots into 25 μL solutions containing 50% (w/v) urea, 20 mM Na2 EDTA, and 0.05% bromophenol blue/zylene cylanol and heating the sample to 90° C. for 2 minutes. The reaction products were analyzed by electrophoretic separation on a denaturing polyacrylamide gel and subsequent autoradiagraphy of the gel.
The half-lives of the various bi-directional nucleic acid ligands under these conditions were estimated by visual inspection of autoradiogram (SEQ ID NO:4): […]

bovine thrombin = experiment: Clot time assay in platelet-poor porcine plasma with added thrombin; assay type: biochemical; conditions: room temperature, FIG. 2
Description: PPP was prepared by separating cells from […] by centrifugation of whole citrated porcine blood (Environmental Diagnostics Inc.). Approximately 0.5 ml of PPP was added to 12×75 mm polystyrene test tubes (FALCON, Becton Dickinson) and equilibrated to room temperature in a water bath for 15 minutes. Following equilibration, 25 μl of 250 μg/ml bovine thrombin (Sigma) in saline was added along with varying amounts of bi-directional nucleic acid ligand compounds prepared in Example 3 (specifically Compound #5 and Compound #9) in saline and sufficient saline diluent to bring the total volume to 0.6 ml. At this time 50 μl of 0.4M CaCl2 was added to initiate coagulation and the tubes were quickly capped. Tube contents were mixed on a laboratory inverting mixer and time of clotting noted for each tube type.

^5' GGTTGGTG^3' -p-^3' TGGTTGG^5' [Compound 1]
Kd (human α thrombin): 224 nM

^5' GGTTGGTTG^3' -p-^3' TTGGTTGG^5' [Compound 3]
Approximate Half-Life [1]: > 100 min
Kd (human α thrombin): 11 nM

^3' GGTTGGTT^5' -p-^5' TTGGTTGG^3' [Compound 4]
Kd (human α thrombin): 25 nM

^5' GGTTGGT^3' -L1 -^3' TGGTTGG^5' (DNA, backbone not given here; two strands joined 3'-3' through linker L1, further chemistry not fully specified) [Compound 5, 3'-3' bi-directional oligonucleotide linked through hexaethylene glycol phosphodiester]
Approximate Half-Life [1]: 30 min
Kd (human α thrombin): 9 nM
Ka (thrombin binding affinity) (human α thrombin; thrombin): > 10^7 M^-1
inhibition of exogenous thrombin in plasma (clot time) (bovine thrombin): inhibition of exogenous thrombin in plasma

^5' GGTTGGTGTGGTTGG^3' [Compound 10, reference compound]
time to complete degradation by the 3'-exonuclease [1]: less than 3 minutes
Approximate Half-Life [1]: < 3 min
Kd (human α thrombin): 6 nM

^5' GGTTGGTT^3' -L1 -^3' TTGGTTGG^5' (DNA, backbone not given here; two strands joined 3'-3' by hexaethylene glycol phosphodiester linker, further chemistry not fully specified) [Compound 6, 3'-3' bi-directional oligonucleotide linked through hexaethylene glycol phosphodiester]
Kd (human α thrombin): 10 nM
thrombin affinity (in words) (human α thrombin; thrombin): high affinity for thrombin
inhibition of exogenous thrombin in plasma (clot time) (bovine thrombin): inhibits thrombin in porcine plasma

^5' GGTTGGTT^3' -p-^3' TTGGTTGG^5' [Compound 2]
Kd (human α thrombin): 312 nM

^5' GGTTGGTT^3' (DNA, backbone not given here) [Compound 12, single oligonucleotide segment, control, reference compound]
Kd (human α thrombin): 1500 nM

5'-GGTTGGT-3' (DNA, backbone not given here) [a single copy of this sequence, reference compound]
thrombin affinity (in words) (human α thrombin; thrombin): does not have high affinity for thrombin
